System: 227483-062-R1-J1-PDC complex spheroids with HUVEC/MSC, viability
Experiment: Anticancer human tumor 227483-062-R1-J1-PDC patient-derived pancreatic carcinoma cell line growth inhibition [CLK]
Conditions: for IC50: curve of first compound; for viability, T/C: stronger effect = lower value
Outline: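 Multi-cell-type spheroids combined patient-derived tumor cells with HUVEC endothelial cells and human mesenchymal stem cells. Paired agents were dosed in half-log steps down from about clinical Cmax, or from 10 microM where Cmax was unknown.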

[1] = second compound 0.0316 µM, first compound 0.0316 µM
[2] = second compound 0.0316 µM, first compound 0.1 µM
[3] = second compound 0.0316 µM, first compound 0.316 µM
[4] = second compound 0.0316 µM, first compound 1 µM
[5] = second compound 0.0316 µM, first compound 3.16 µM
[6] = second compound 0.0316 µM, first compound 10 µM
[7] = second compound 0.1 µM, first compound 0.0316 µM
[8] = second compound 0.1 µM, first compound 0.1 µM
[9] = second compound 0.1 µM, first compound 0.316 µM
[10] = second compound 0.1 µM, first compound 1 µM
[11] = second compound 0.1 µM, first compound 3.16 µM
[12] = second compound 0.1 µM, first compound 10 µM
[13] = second compound 0.316 µM, first compound 0.0316 µM
[14] = second compound 0.316 µM, first compound 0.1 µM
[15] = second compound 0.316 µM, first compound 0.316 µM
[16] = second compound 0.316 µM, first compound 1 µM
[17] = second compound 0.316 µM, first compound 3.16 µM
[18] = second compound 0.316 µM, first compound 10 µM
[19] = second compound 1 µM, first compound 0.0316 µM
[20] = second compound 1 µM, first compound 0.1 µM
[21] = second compound 1 µM, first compound 0.316 µM
[22] = second compound 1 µM, first compound 1 µM
[23] = second compound 1 µM, first compound 3.16 µM
[24] = second compound 1 µM, first compound 10 µM
[25] = second compound 3.16 µM, first compound 0.0316 µM
[26] = second compound 3.16 µM, first compound 0.1 µM
[27] = second compound 3.16 µM, first compound 0.316 µM
[28] = second compound 3.16 µM, first compound 1 µM
[29] = second compound 3.16 µM, first compound 3.16 µM
[30] = second compound 3.16 µM, first compound 10 µM
[31] = second compound 10 µM, first compound 0.0316 µM
[32] = second compound 10 µM, first compound 0.1 µM
[33] = second compound 10 µM, first compound 0.316 µM
[34] = second compound 10 µM, first compound 1 µM
[35] = second compound 10 µM, first compound 3.16 µM
[36] = second compound 10 µM, first compound 10 µM
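Further: spheroids exposed to compounds for seven days before readout.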
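Wherever viability, T/C is given: percent of DMSO vehicle control luminescence as 100% viability.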

## COc1ccc([C@@H](O)c2cc(-c3ncnc4cc(N5CCOCC5)ccc34)c(F)cc2Cl)nn1 + CNC(=O)c1ccc(Nc2nc(OC3CCCC3)c3c(-c4ccc5nc(C)oc5c4)c[nH]c3n2)c(OC)c1
Second compound 0.0316 µM
  IC50: > 10000 nM
Second compound 0.1 µM
  IC50: > 10000 nM
Second compound 0.316 µM
  IC50: > 10000 nM
Second compound 1 µM
  IC50: 750 nM
Second compound 3.16 µM
  IC50: < 31.6 nM
Second compound 10 µM
  IC50: < 31.6 nM
[1]
  viability, T/C: 94.6%
[2]
  viability, T/C: 85.9%
[3]
  viability, T/C: 108%
[4]
  viability, T/C: 94.5%
[5]
  viability, T/C: 73.1%
[6]
  viability, T/C: 59.8%
[7]
  viability, T/C: 98.6%
[8]
  viability, T/C: 86.8%
[9]
  viability, T/C: 76.7%
[10]
  viability, T/C: 75.5%
[11]
  viability, T/C: 58.5%
[12]
  viability, T/C: 53.5%
[13]
  viability, T/C: 86.2%
[14]
  viability, T/C: 83.1%
[15]
  viability, T/C: 72.1%
[16]
  viability, T/C: 56.5%
[17]
  viability, T/C: 63.5%
[18]
  viability, T/C: 53.7%
[19]
  viability, T/C: 68.1%
[20]
  viability, T/C: 64.3%
[21]
  viability, T/C: 62.8%
[22]
  viability, T/C: 42.5%
[23]
  viability, T/C: 48%
[24]
  viability, T/C: 46.7%
[25]
  viability, T/C: 42%
[26]
  viability, T/C: 41.5%
[27]
  viability, T/C: 42.1%
[28]
  viability, T/C: 45.7%
[29]
  viability, T/C: 48.3%
[30]
  viability, T/C: 26.2%
[31]
  viability, T/C: 36.1%
[32]
  viability, T/C: 38.2%
[33]
  viability, T/C: 31.9%
[34]
  viability, T/C: 39%
[35]
  viability, T/C: 38.6%
[36]
  viability, T/C: 27.9%

## COc1cccc2c1C(=O)c1c(O)c3c(c(O)c1C2=O)CC(O)(C(=O)CO)CC3OC1CC(N)C(O)C(C)O1 (centres undefined) + CNC(=O)c1ccc(Nc2nc(OC3CCCC3)c3c(-c4ccc5nc(C)oc5c4)c[nH]c3n2)c(OC)c1
Second compound 0.0316 µM
  IC50: 277 nM
Second compound 0.1 µM
  IC50: 229 nM
Second compound 0.316 µM
  IC50: 177 nM
Second compound 1 µM
  IC50: 114 nM
Second compound 3.16 µM
  IC50: < 31.6 nM
Second compound 10 µM
  IC50: < 31.6 nM
[1]
  viability, T/C: 84.4%
[2]
  viability, T/C: 91.2%
[3]
  viability, T/C: 43.6%
[4]
  viability, T/C: 19.9%
[5]
  viability, T/C: 1.83%
[6]
  viability, T/C: 10.3%
[7]
  viability, T/C: 81.2%
[8]
  viability, T/C: 79.9%
[9]
  viability, T/C: 38.1%
[10]
  viability, T/C: 15%
[11]
  viability, T/C: 2.41%
[12]
  viability, T/C: 10.7%
[13]
  viability, T/C: 81.7%
[14]
  viability, T/C: 66.2%
[15]
  viability, T/C: 33.8%
[16]
  viability, T/C: 9.76%
[17]
  viability, T/C: 2.28%
[18]
  viability, T/C: 9.14%
[19]
  viability, T/C: 66.9%
[20]
  viability, T/C: 53.5%
[21]
  viability, T/C: 20.1%
[22]
  viability, T/C: 4.28%
[23]
  viability, T/C: 2.52%
[24]
  viability, T/C: 5.99%
[25]
  viability, T/C: 45.1%
[26]
  viability, T/C: 35.9%
[27]
  viability, T/C: 11.5%
[28]
  viability, T/C: 2.71%
[29]
  viability, T/C: 3.57%
[30]
  viability, T/C: 5.5%
[31]
  viability, T/C: 41.7%
[32]
  viability, T/C: 28.1%
[33]
  viability, T/C: 11.3%
[34]
  viability, T/C: 2.5%
[35]
  viability, T/C: 3.15%
[36]
  viability, T/C: 6.7%

From PubChem BioAssay AID2060623 (Molecular Pharmacology Branch, DTP, NCI, 2025)
